Measurements reported in the NIST ThermoML archive (doi:10.1016/j.jct.2004.09.021).

Tests used:
[1] = refractive index (Na D-line) (dimensionless); conditions: 101.33 kPa, Liquid
[2] = 101 kPa, Liquid
[3] = refractive index (Na D-line) (dimensionless); xn = mol fraction of the nth substance listed; conditions: 101 kPa, Liquid
[4] = xn = mol fraction of the nth substance listed; conditions: 101 kPa, Liquid

CCCCCCCCCC [decane]
Conditions	mass density, 293.15 K [kg/m3]	mass density, 298.15 K [kg/m3]	mass density, 303.15 K [kg/m3]	refractive index, 293.15 K	refractive index, 298.15 K	refractive index, 303.15 K	viscosity, 293.15 K [mPa·s]	viscosity, 298.15 K [mPa·s]	viscosity, 303.15 K [mPa·s]
[1]	–	–	–	1.4148	1.4118	1.4089	–	–	–
[2]	729.91	726.16	722.36	–	–	–	0.9169	0.8512	0.7898

COc1ccccc1 [anisole]
Conditions	mass density, 293.15 K [kg/m3]	mass density, 298.15 K [kg/m3]	mass density, 303.15 K [kg/m3]	refractive index, 293.15 K	refractive index, 298.15 K	refractive index, 303.15 K	viscosity, 293.15 K [mPa·s]	viscosity, 298.15 K [mPa·s]	viscosity, 303.15 K [mPa·s]
[1]	–	–	–	1.5161	1.5141	1.5129	–	–	–
[2]	993.81	989.15	984.42	–	–	–	1.085	1.017	0.9285

COc1ccccc1 [anisole] + CCCCCCCC
Conditions	mass density, 293.15 K [kg/m3]	mass density, 298.15 K [kg/m3]	mass density, 303.15 K [kg/m3]	refractive index, 293.15 K	refractive index, 298.15 K	refractive index, 303.15 K	viscosity, 293.15 K [mPa·s]	viscosity, 298.15 K [mPa·s]	viscosity, 303.15 K [mPa·s]
[3], x1 = 0.106	–	–	–	1.405	1.4029	1.4004	–	–	–
[3], x1 = 0.231	–	–	–	1.4158	1.4136	1.4114	–	–	–
[3], x1 = 0.307	–	–	–	1.423	1.4208	1.4187	–	–	–
[3], x1 = 0.3991	–	–	–	1.4324	1.4303	1.4283	–	–	–
[3], x1 = 0.503	–	–	–	1.444	1.4419	1.44	–	–	–
[3], x1 = 0.6	–	–	–	1.4562	1.454	1.4522	–	–	–
[3], x1 = 0.69	–	–	–	1.4683	1.4661	1.4643	–	–	–
[3], x1 = 0.796	–	–	–	1.4838	1.4815	1.4797	–	–	–
[3], x1 = 0.8822	–	–	–	1.4973	1.495	1.4933	–	–	–
[3], x1 = 1	–	–	–	1.5161	1.5141	1.5129	–	–	–
[4], x1 = 0.1031	722.82	718.75	714.63	–	–	–	0.5523	0.5195	0.4917
[4], x1 = 0.2253	749.02	744.78	740.6	–	–	–	0.568	0.5349	0.5042
[4], x1 = 0.3001	766.32	762.01	757.77	–	–	–	0.5825	0.5446	0.5166
[4], x1 = 0.4	791.02	786.68	782.37	–	–	–	0.6136	0.5719	0.5434
[4], x1 = 0.5092	820.49	816.09	811.7	–	–	–	0.6541	0.6157	0.5779
[4], x1 = 0.5998	847.08	842.65	838.17	–	–	–	0.7026	0.6542	0.6162
[4], x1 = 0.6977	878.22	873.72	869.19	–	–	–	0.7639	0.7153	0.6729
[4], x1 = 0.7998	913.74	909.15	904.54	–	–	–	0.8456	0.7845	0.7453
[4], x1 = 0.8975	950.96	946.32	941.63	–	–	–	0.9497	0.8917	0.8289
[4], x1 = 1	993.81	989.15	984.42	–	–	–	1.085	1.017	0.9285

CCCCCCCCC [nonane] + COc1ccccc1
x2 = 0
Conditions	mass density, 293.15 K [kg/m3]	mass density, 298.15 K [kg/m3]	mass density, 303.15 K [kg/m3]	refractive index, 293.15 K	refractive index, 298.15 K	refractive index, 303.15 K	viscosity, 293.15 K [mPa·s]	viscosity, 298.15 K [mPa·s]	viscosity, 303.15 K [mPa·s]
[3]	–	–	–	1.404	1.4027	1.4002	–	–	–
[4]	717.59	713.71	709.81	–	–	–	0.7136	0.6715	0.6307

CCCCCCC [heptane] + COc1ccccc1
x2 = 0
Conditions	mass density, 293.15 K [kg/m3]	mass density, 298.15 K [kg/m3]	mass density, 303.15 K [kg/m3]	refractive index, 293.15 K	refractive index, 298.15 K	refractive index, 303.15 K	viscosity, 293.15 K [mPa·s]	viscosity, 298.15 K [mPa·s]	viscosity, 303.15 K [mPa·s]
[3]	–	–	–	1.3872	1.3855	1.3827	–	–	–
[4]	683.96	679.77	675.5	–	–	–	0.4127	0.3909	0.3702

CCCCCCCCCCCC [dodecane] + COc1ccccc1
x2 = 0
Conditions	mass density, 293.15 K [kg/m3]	mass density, 298.15 K [kg/m3]	mass density, 303.15 K [kg/m3]	refractive index, 293.15 K	refractive index, 298.15 K	refractive index, 303.15 K	viscosity, 293.15 K [mPa·s]	viscosity, 298.15 K [mPa·s]	viscosity, 303.15 K [mPa·s]
[3]	–	–	–	1.421	1.4172	1.4135	–	–	–
[4]	748.78	745.14	741.52	–	–	–	1.487	1.373	1.25
